From ChEMBL document CHEMBL5143553, “Structure-activity relationship and mechanistic study on guggulsterone derivatives; Discovery of new anti-pancreatic cancer candidate” (Bioorg Med Chem, 2022)
The source made the active and inactive calls. The rule behind the calls is not given here.

Tests used:
PANC-1 [1] = assay: Preferential cytotoxic activity against human PANC-1 cells in nutrient-deprived medium; type: functional
PANC-1 [2] = assay: Preferential cytotoxic activity against human PANC-1 cells in Dulbecco's modified Eagle's medium; type: functional, cell-based
[3] = Selectivity index, ratio of PC50 for Preferential cytotoxic activity against human PANC-1 cells in Dulbecco's modified Eagle's medium to PC50 for Preferential cytotoxic activity against human PANC-1 cells in nutrient-deprived medium; type: functional
PANC-1 [4] = assay: Induction of morphological changes in human PANC-1 cells in nutrient-deprived medium assessed as induction of cell rounding and shrinkage at 10 uM within 24 hrs by Cyto-smart Lux2 live cell imaging based method; type: functional
PANC-1 [5] = assay: Induction of morphological changes in human PANC-1 cells in nutrient-deprived medium assessed as induction of leakage of intracellular components into the media at 10 uM within 24 hrs by Cyto-smart Lux2 live cell imaging based method; type: functional
PANC-1 [6] = assay: Induction of cell death in human PANC-1 cells in nutrient-deprived medium at 10 uM after 24 hrs by ethidium bromide-acridine orange double-staining assay; type: functional, cell-based
PANC-1 [7] = assay: Inhibition of cell migration in human PANC-1 cells in DMEM medium assessed as wound area level at 3 uM after 24 hrs by wound-healing assay relative to initial area (reference value: 55%); type: functional; design: scale not given: the % may be the effect or the level left
PANC-1 [8] = assay: Inhibition of cell migration in human PANC-1 cells in DMEM medium assessed as wound area level at 5 uM after 24 hrs by wound-healing assay relative to initial area (reference value: 55%); type: functional; design: scale not given: the % may be the effect or the level left
PANC-1 [9] = assay: Inhibition of cell migration in human PANC-1 cells in DMEM medium assessed as wound area level at 3 uM after 48 hrs by wound-healing assay relative to initial area (reference value: 23%); type: functional; design: scale not given: the % may be the effect or the level left
PANC-1 [10] = assay: Inhibition of cell migration in human PANC-1 cells in DMEM medium assessed as wound area level at 5 uM after 48 hrs by wound-healing assay relative to initial area (reference value: 23%); type: functional; design: scale not given: the % may be the effect or the level left
PANC-1 [11] = assay: Inhibition of colony formation in human PANC-1 cells in DMEM medium at 1 uM incubated for 10 days relative to control; type: functional; details: PANC-1, 240 h, time 10 day
PANC-1 [12] = assay: Inhibition of colony formation in human PANC-1 cells in DMEM medium at 3 uM incubated for 10 days relative to control; type: functional; details: PANC-1, 240 h, time 10 day
PANC-1 [13] = assay: Inhibition of colony formation in human PANC-1 cells in DMEM medium at 5 uM incubated for 10 days relative to control; type: functional; details: PANC-1, 240 h, time 10 day
[14] = target: T1, Serine/threonine-protein kinase AKT (Homo sapiens) (UniProt P31751+Q9Y243+P31749); assay: Inhibition of Akt S473 phosphorylation in human PANC-1 cells in NDM medium at 2.5 to 10 uM incubated for 6 hrs by Western blot analysis; type: cell-based; details: dose 2.5-10 µM
[15] = target: T1, Serine/threonine-protein kinase AKT (Homo sapiens); assay: Inhibition of Akt S473 phosphorylation in human PANC-1 cells in DMEM medium at 10 uM incubated for 6 hrs by Western blot analysis; type: cell-based
[16] = target: T1, Serine/threonine-protein kinase AKT (Homo sapiens); assay: Inhibition of Akt signaling in human PANC-1 cells assessed as reduction in mTOR […] phosphorylation in NDM medium at 10 uM incubated for 6 hrs by Western blot analysis; type: cell-based
PANC-1 [17] = assay: Effect on Akt protein expression in human PANC-1 cells in DMEM medium at 1 to 10 uM incubated for 6 hrs by Western blot analysis; type: functional, cell-based; details: dose 1-10 µM
PANC-1 [18] = assay: Effect on mTOR protein expression in human PANC-1 cells in DMEM medium at 1 to 10 uM incubated for 6 hrs by Western blot analysis; type: functional, cell-based; details: dose 1-10 µM
PANC-1 [19] = assay: Effect on mTOR protein expression in human PANC-1 cells in NDM medium at 1 to 10 uM incubated for 6 hrs by Western blot analysis; type: functional, cell-based; details: dose 1-10 µM
PANC-1 [20] = assay: Effect on […] protein expression in human PANC-1 cells in NDM medium at 1 to 10 uM incubated for 6 hrs by Western blot analysis; type: functional, cell-based; details: dose 1-10 µM

T1 sequence (P31749 whole entry, looked up): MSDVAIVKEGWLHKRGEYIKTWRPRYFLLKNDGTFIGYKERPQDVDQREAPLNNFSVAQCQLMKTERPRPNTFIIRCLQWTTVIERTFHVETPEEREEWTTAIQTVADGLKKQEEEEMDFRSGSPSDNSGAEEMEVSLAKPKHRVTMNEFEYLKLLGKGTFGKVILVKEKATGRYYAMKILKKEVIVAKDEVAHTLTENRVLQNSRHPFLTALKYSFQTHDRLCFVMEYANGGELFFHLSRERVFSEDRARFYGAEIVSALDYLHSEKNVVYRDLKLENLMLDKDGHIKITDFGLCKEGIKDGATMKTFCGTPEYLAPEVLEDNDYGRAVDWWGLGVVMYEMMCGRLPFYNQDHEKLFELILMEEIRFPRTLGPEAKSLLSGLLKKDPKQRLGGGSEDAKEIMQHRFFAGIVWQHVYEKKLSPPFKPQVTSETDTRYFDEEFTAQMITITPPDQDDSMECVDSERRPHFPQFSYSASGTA
T1 sequence (P31751 whole entry, looked up): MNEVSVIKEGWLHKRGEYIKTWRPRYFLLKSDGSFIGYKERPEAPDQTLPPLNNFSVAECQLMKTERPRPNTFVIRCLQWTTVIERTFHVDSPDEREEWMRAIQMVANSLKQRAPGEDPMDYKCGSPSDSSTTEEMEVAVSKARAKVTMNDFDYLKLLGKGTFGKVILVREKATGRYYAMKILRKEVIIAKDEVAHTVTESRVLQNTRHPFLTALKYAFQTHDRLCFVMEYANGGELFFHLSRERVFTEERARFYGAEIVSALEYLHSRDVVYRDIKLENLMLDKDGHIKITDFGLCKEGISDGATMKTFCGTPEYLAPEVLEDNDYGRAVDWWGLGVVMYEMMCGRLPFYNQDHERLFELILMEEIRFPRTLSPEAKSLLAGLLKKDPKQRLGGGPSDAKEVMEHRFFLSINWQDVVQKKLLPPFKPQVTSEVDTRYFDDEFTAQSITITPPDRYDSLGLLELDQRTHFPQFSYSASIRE
T1 sequence (Q9Y243 whole entry, looked up): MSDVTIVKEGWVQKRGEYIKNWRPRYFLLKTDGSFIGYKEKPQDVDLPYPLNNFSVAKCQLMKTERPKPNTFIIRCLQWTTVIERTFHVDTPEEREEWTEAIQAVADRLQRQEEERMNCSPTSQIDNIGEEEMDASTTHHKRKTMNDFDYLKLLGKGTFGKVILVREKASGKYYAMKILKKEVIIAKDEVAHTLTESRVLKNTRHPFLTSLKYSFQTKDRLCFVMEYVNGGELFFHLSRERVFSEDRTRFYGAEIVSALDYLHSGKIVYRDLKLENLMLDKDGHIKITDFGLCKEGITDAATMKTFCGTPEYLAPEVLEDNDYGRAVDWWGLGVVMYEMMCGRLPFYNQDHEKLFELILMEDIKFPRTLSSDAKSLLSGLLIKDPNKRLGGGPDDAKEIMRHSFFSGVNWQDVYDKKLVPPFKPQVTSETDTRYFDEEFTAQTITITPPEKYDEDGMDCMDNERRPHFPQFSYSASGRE

In the case of `CC(=O)O[C@H]1CCCC2=CC(=O)CC[C@@]21C`, the PC50 (PANC-1 [1]) is reported as greater than 100 µM and the IC50 (PANC-1 [2]) is reported as greater than 100 µM.

With `C=C1[C@H](O)C[C@H]2[C@@H]3CCC4=CC(=O)CC[C@]4(C)[C@H]3CC[C@]12C` the PC50 (PANC-1 [1]) was 57 µM and the IC50 (PANC-1 [2]) was greater than 100 µM.

For `C=C1C(=O)C[C@H]2[C@@H]3CC[C@H]4CC(=O)CC[C@]4(C)[C@H]3CC[C@]12C`, the PC50 (PANC-1 [1]) was 0.72 µM, the IC50 (PANC-1 [2]) was 3.5 µM and the “Selectivity Index” value [3] was 4.9. For the same molecule, the Activity (PANC-1 [4]) was “Active”, the Activity (PANC-1 [5]) was “Active” and the Activity (PANC-1 [6]) was “Active”. It also gave an Activity (PANC-1 [7]) of 70%, an Activity (PANC-1 [8]) of 85% and an Activity (PANC-1 [9]) of 45%. The Activity (PANC-1 [10]) was 70%, the inhibition at 1 µM (PANC-1 [11]) was greater than 50.9% and the inhibition at 3 µM (PANC-1 [12]) was 97.7%. The inhibition at 5 µM (PANC-1 [13]) was 100%, the inhibition [14] was “Active” and the inhibition [15] was “Active”. The inhibition [16] was “Active”, the Activity (PANC-1 [17]) was “Non-Toxic” and the Activity (PANC-1 [18]) was “Non-Toxic”. For the same molecule, the Activity (PANC-1 [19]) was “Non-Toxic” and the Activity (PANC-1 [20]) was “Non-Toxic”.

For `C/C=C1/CC[C@H]2[C@@H]3CCC4=CC(=O)CC[C@]4(C)[C@H]3CC[C@]12C`, the PC50 (PANC-1 [1]) was 3.2 µM, the IC50 (PANC-1 [2]) was greater than 100 µM and the “Selectivity Index” value [3] was greater than 31.

In the case of `C=C1C(F)(F)C[C@H]2[C@@H]3CCC4=CC(=O)CC[C@]4(C)[C@H]3CC[C@]12C`, the PC50 (PANC-1 [1]) is reported as 14 µM, the IC50 (PANC-1 [2]) is reported as greater than 100 µM and the “Selectivity Index” value [3] is reported as greater than 7.1.

With `C[C@]12CCC(=O)C=C1CC[C@@H]1[C@@H]2CC[C@]2(C)C(=C(F)F)CC[C@@H]12` the PC50 (PANC-1 [1]) was 5.2 µM, the IC50 (PANC-1 [2]) was 91 µM and the “Selectivity Index” value [3] was 18.

With `C[C@]12CCC(=O)C=C1CC[C@@H]1[C@@H]2CC[C@]2(C)C(=C(F)F)[C@H](O)C[C@@H]12` the PC50 (PANC-1 [1]) was 18 µM, the IC50 (PANC-1 [2]) was 51 µM and the “Selectivity Index” value [3] was 2.8.

For `CCO[C@H]1CCCC2=CC(=O)CC[C@@]21C`, the PC50 (PANC-1 [1]) was greater than 100 µM and the IC50 (PANC-1 [2]) was greater than 100 µM.

With `C[C@]12CC[C@H]3[C@@H](CCC4=CC(=O)CC[C@@]43C)[C@@H]1CC(=O)[C@@H]2CSCCO` the PC50 (PANC-1 [1]) was 53 µM and the IC50 (PANC-1 [2]) was 100 µM.

In the case of `C=C1[C@H](OCOC)C[C@H]2[C@@H]3CCC4=CC(=O)CC[C@]4(C)[C@H]3CC[C@]12C`, the PC50 (PANC-1 [1]) is reported as 31 µM, the IC50 (PANC-1 [2]) is reported as 100 µM and the “Selectivity Index” value [3] is reported as 3.2.

For `C/C=C1/C(=O)C[C@H]2[C@@H]3CCC4=CC(=O)CC[C@]4(C)[C@H]3CC[C@]12C`, the PC50 (PANC-1 [1]) was “Active”.

With `C=C1C(=O)C[C@H]2[C@@H]3CC[C@H]4CCCC[C@]4(C)[C@H]3CC[C@]12C` the PC50 (PANC-1 [1]) was 0.8 µM, the IC50 (PANC-1 [2]) was 3 µM and the “Selectivity Index” value [3] was 3.8.

With `COCO[C@@H]1C[C@H]2[C@@H]3CCC4=CC(=O)CC[C@]4(C)[C@H]3CC[C@]2(C)C1=C(F)F` the PC50 (PANC-1 [1]) was 9.2 µM, the IC50 (PANC-1 [2]) was 29 µM and the “Selectivity Index” value [3] was 3.2.

With `C=C1CC[C@H]2[C@@H]3CCC4=CC(=O)CC[C@]4(C)[C@H]3CC[C@]12C` the PC50 (PANC-1 [1]) was 3.5 µM, the IC50 (PANC-1 [2]) was 50 µM and the “Selectivity Index” value [3] was 14.

For `C=C1C(=O)C[C@H]2[C@@H]3CCC4=CC(=O)CC[C@]4(C)[C@H]3CC[C@]12C`, the PC50 (PANC-1 [1]) was 1.6 µM and the “Selectivity Index” value [3] was 6.9.
